{
  "source": "patent US20220306695A1",
  "about": "“COMPSTATIN ANALOGUES AND THEIR MEDICAL USES” (priority 2019, published 2022)",
  "system": "classical complement pathway",
  "assay": "In vitro haemolysis assay (inhibition of classical complement pathway)",
  "type": "cell-based, human",
  "settings": "for IC50: Table 3, read-out: IC50[nM], in vitro analysis of inhibition of hemolysis; for pIC50: read-out: CP hemolysis IC50",
  "summary_of_the_method": "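Serially diluted compound (9 points) was preincubated 15 min at room temperature with diluted human serum, titrated per batch to give 70-90% maximal haemolysis, in Tris/casein buffer pH 7.4 with Mg2+/Ca2+. Antibody-sensitized sheep erythrocytes were then added for 30 min at 37° C, and the reaction was stopped with EDTA. Haemolysis was read at A405, with IC50 from 4PL fit.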",
  "key": {"[1]": {"settings": "human serum, sensitized sheep red blood cells"}, "[2]": {"settings": "Table 4, valine 3 versus isoleucine 3 pairs"}},
  "note": "pIC50: −log10 of the molar value. Read-outs that look alike come from different tables or passages of the source. Starred links: 1 amine or outer side, 2 acyl side, 3 side chain; linkers in the order of their positions; H or OH if unused. Positions of bridges follow the written chain, without caps; N, C: chain ends. Non-standard residues stand in square brackets, D forms with d. Residues, ends and D or L forms follow the SMILES beside them. Groups on a side chain read outwards from the residue. *: point of attachment. Trp(1-Me) = Cn1cc(C[C@H](N)C(=O)O)c2ccccc21; Abu(4-yl) = O=C([C@H](CC[*:3])N[*:1])[*:2]; C18 diacid = O=C(O)CCCCCCCCCCCCCCCCC(=O)*; γGlu = O=C(O)[C@H](CCC(=O)[*:2])N[*:1]; AEEA = NCCOCCOCC(=O)O; Sar = CNCC(=O)O",
  "data": [
    {"smiles": "CC[C@H](C)[C@@H]1NC(=O)[C@@H](NC(=O)[C@H](Cc2ccccc2)NC(=O)[C@H](CCC(=O)O)NC(=O)[C@H](CO)NC(C)=O)CSSC[C@@H](C(=O)N[C@H](C(=O)N[C@@H](CCC(=O)O)C(=O)NCC(=O)N[C@@H](CCC(=O)O)C(=O)NCC(=O)NCC(=O)NCC(=O)N[C@@H](CCCCNC(=O)CC[C@H](NC(=O)CNC(=O)CC[C@H](NC(=O)CCCCCCCCCCCCCCCCC(=O)O)C(=O)O)C(=O)O)C(N)=O)[C@@H](C)O)NC(=O)[C@H](CCCNC(=N)N)NC(=O)[C@H](Cc2c[nH]cn2)NC(=O)[C@H](CCC(=O)O)NC(=O)CNC(=O)[C@H](Cc2c[nH]c3ccccc23)NC(=O)[C@H](CC(=O)O)NC(=O)[C@H](CCC(N)=O)NC(=O)[C@H](Cc2cn(C)c3ccccc23)NC1=O", "note": "[Compound 130] (Ac-SEFCI[Trp(1-Me)]QDWGEHRCTEGEGGGK([γGlu-Gly-γGlu-C18 diacid])-NH2; disulfide 4-14)", "values": [
      {"measurement": "IC50", "setting": "[1]", "result": "< 100", "unit": "nM"}
    ]},
    {"smiles": "CC[C@H](C)[C@@H]1NC(=O)[C@@H](NC(=O)CN(C)C(=O)[C@H](CCC(=O)O)NC(=O)[C@H](CO)NC(C)=O)CSSC[C@@H](C(=O)N(C)CC(=O)N[C@@H](CCC(=O)O)C(=O)N[C@@H](C)C(N)=O)NC(=O)[C@H](CCCNC(=N)N)NC(=O)[C@H](Cc2c[nH]cn2)NC(=O)[C@H](CCC(=O)O)NC(=O)CNC(=O)[C@H](Cc2c[nH]c3ccccc23)NC(=O)[C@H](CCC(=O)O)NC(=O)[C@H](CCC(N)=O)NC(=O)[C@H](Cc2cn(C)c3ccccc23)NC1=O", "note": "[Compound 90] (Ac-SE[Sar]CI[Trp(1-Me)]QEWGEHRC[Sar]EA-NH2; disulfide 4-14)", "values": [
      {"measurement": "IC50", "setting": "[1]", "result": "< 250", "unit": "nM"}
    ]},
    {"smiles": "CC[C@H](C)[C@H](NC(C)=O)C(=O)N[C@H]1CSSC[C@@H](C(=O)N[C@H](C(=O)NCC(=O)N[C@@H](C)C(=O)N[C@@H](CCC(=O)O)C(=O)N[C@@H](CO)C(N)=O)[C@@H](C)O)NC(=O)[C@H](CCCNC(=N)N)NC(=O)[C@H](Cc2c[nH]cn2)NC(=O)[C@H](C)NC(=O)CNC(=O)[C@H](Cc2c[nH]c3ccccc23)NC(=O)[C@H](CC(=O)O)NC(=O)[C@H](CCC(N)=O)NC(=O)[C@H](Cc2c[nH]c3ccccc23)NC(=O)[C@H]([C@@H](C)CC)NC1=O", "note": "[Compound 47] (Ac-ICIWQDWGAHRCTGAES-NH2; disulfide 2-12)", "values": [
      {"measurement": "IC50", "setting": "[1]", "result": "< 100", "unit": "nM"}
    ]},
    {"smiles": "CC[C@H](C)[C@@H]1NC(=O)[C@@H](NC(=O)CN(C)C(=O)[C@H](CCC(=O)O)NC(=O)[C@H](CO)NC(C)=O)CSSC[C@@H](C(=O)N[C@H](C(=O)N[C@@H](CCC(=O)O)C(=O)N[C@@H](C)C(N)=O)[C@@H](C)O)NC(=O)[C@H](CCCNC(=N)N)NC(=O)[C@H](Cc2c[nH]cn2)NC(=O)[C@H](CCC(=O)O)NC(=O)CN(C)C(=O)[C@H](Cc2c[nH]c3ccccc23)NC(=O)[C@H](CCC(=O)O)NC(=O)[C@H](CCC(N)=O)NC(=O)[C@H](Cc2cn(C)c3ccccc23)NC1=O", "note": "[Compound 89, Ac-SE[Sar]C(1)I[1-Me-Trp]QEW[Sar]EHRC(1)TEA-NH2] (Ac-SE[Sar]CI[Trp(1-Me)]QEW[Sar]EHRCTEA-NH2; disulfide 4-14)", "values": [
      {"measurement": "IC50", "setting": "[1]", "result": "< 100", "unit": "nM"}
    ]},
    {"smiles": "CC[C@H](C)[C@@H]1NC(=O)[C@@H](NC(=O)[C@H](Cc2ccccc2)NC(=O)[C@H](CCC(=O)O)NC(=O)[C@H](CO)NC(C)=O)CSSC[C@@H](C(=O)N(C)CC(=O)N[C@@H](CCC(=O)O)C(=O)NCC(=O)N[C@@H](CCC(=O)O)C(=O)NCCOCCOCC(=O)N[C@@H](CCCCNC(=O)CC[C@H](NC(=O)CNC(=O)CC[C@H](NC(=O)CCCCCCCCCCCCCCCCC(=O)O)C(=O)O)C(=O)O)C(N)=O)NC(=O)[C@H](CCCNC(=N)N)NC(=O)[C@H](Cc2c[nH]cn2)NC(=O)[C@H](CCC(=O)O)NC(=O)CNC(=O)[C@H](Cc2c[nH]c3ccccc23)NC(=O)[C@H](CC(=O)O)NC(=O)[C@H](CCC(N)=O)NC(=O)[C@H](Cc2cn(C)c3ccccc23)NC1=O", "note": "[Compound 138] (Ac-SEFCI[Trp(1-Me)]QDWGEHRC[Sar]EGE[AEEA]K([γGlu-Gly-γGlu-C18 diacid])-NH2; disulfide 4-14)", "values": [
      {"measurement": "IC50", "setting": "[1]", "result": "< 100", "unit": "nM"}
    ]},
    {"smiles": "CC[C@H](C)[C@@H]1NC(=O)[C@@H](NC(=O)[C@H](Cc2ccccc2)NC(=O)[C@H](CCC(=O)O)NC(=O)[C@H](CO)NC(C)=O)CSCC[C@@H](C(=O)N(C)CC(=O)N[C@@H](CCC(=O)O)C(=O)NCC(=O)N[C@@H](C)C(=O)N[C@@H](CCCCNC(=O)COCCOCCNC(=O)CC[C@H](NC(=O)COCCOCCNC(=O)CNC(=O)CC[C@H](NC(=O)CCCCCCCCCCCCCCCCC(=O)O)C(=O)O)C(=O)O)C(N)=O)NC(=O)[C@H](CCCNC(=N)N)NC(=O)[C@H](Cc2c[nH]cn2)NC(=O)[C@H](CCC(=O)O)NC(=O)CNC(=O)[C@H](Cc2c[nH]c3ccccc23)NC(=O)[C@H](CC(=O)O)NC(=O)[C@H](CCC(N)=O)NC(=O)[C@H](Cc2cn(C)c3ccccc23)NC1=O", "note": "[Compound 154, Ac-SEFA(1)I[1-Me-Trp]QDWGEHRhC(1)[Sar]EGA-K([17-carboxy-heptadecanoyl][γGlu]G[Peg3][γGlu][Peg3])-NH2] (Ac-SEFCI[Trp(1-Me)]QDWGEHR[Abu(4-yl)][Sar]EGAK([AEEA-γGlu-AEEA-Gly-γGlu-C18 diacid])-NH2; thioether 4-14)", "values": [
      {"measurement": "IC50", "setting": "[1]", "result": "< 100", "unit": "nM"}
    ]},
    {"smiles": "CC[C@H](C)[C@H](NC(C)=O)C(=O)N[C@H]1CSSC[C@@H](C(=O)N[C@H](C(N)=O)[C@@H](C)O)NC(=O)[C@H](CO)NC(=O)[C@H](Cc2c[nH]cn2)NC(=O)[C@H](CCC(=O)O)NC(=O)CNC(=O)[C@H](Cc2c[nH]c3ccccc23)NC(=O)[C@H](CC(=O)O)NC(=O)[C@H](CCC(N)=O)NC(=O)[C@H](Cc2c[nH]c3ccccc23)NC(=O)[C@H](C(C)C)NC1=O", "note": "[F, reference compound] (Ac-ICVWQDWGEHSCT-NH2; disulfide 2-12)", "values": [
      {"measurement": "pIC50", "setting": "[2]", "result": 6.27}
    ]},
    {"smiles": "CC[C@H](C)[C@H](NC(C)=O)C(=O)N[C@H]1CSSC[C@@H](C(=O)N[C@H](C(=O)N[C@@H](CCC(=O)O)C(=O)NCC(=O)N[C@@H](CCC(=O)O)C(N)=O)[C@@H](C)O)NC(=O)[C@H](CCCNC(=N)N)NC(=O)[C@H](Cc2c[nH]cn2)NC(=O)[C@H](CCC(=O)O)NC(=O)CNC(=O)[C@H](Cc2c[nH]c3ccccc23)NC(=O)[C@H](CC(=O)O)NC(=O)[C@H](CCC(N)=O)NC(=O)[C@H](Cc2c[nH]c3ccccc23)NC(=O)[C@H](C(C)C)NC1=O", "note": "[J, reference compound] (Ac-ICVWQDWGEHRCTEGE-NH2; disulfide 2-12)", "values": [
      {"measurement": "pIC50", "setting": "[2]", "result": 6.62}
    ]},
    {"smiles": "CC[C@H](C)[C@H](NC(C)=O)C(=O)N[C@H]1CSSC[C@@H](C(=O)N[C@H](C(N)=O)[C@@H](C)O)NC(=O)[C@H](CCCNC(=N)N)NC(=O)[C@H](Cc2c[nH]cn2)NC(=O)[C@H](C)NC(=O)CNC(=O)[C@H](Cc2c[nH]c3ccccc23)NC(=O)[C@H](CC(=O)O)NC(=O)[C@H](CCC(N)=O)NC(=O)[C@H](Cc2c[nH]c3ccccc23)NC(=O)[C@H](C(C)C)NC1=O", "note": "[Compound 4W9A, reference compound]", "values": [
      {"measurement": "pIC50", "setting": "Table 2, human serum, sensitized sheep red blood cells", "result": 6.60},
      {"measurement": "IC50", "setting": "[1]", "result": "< 500", "unit": "nM"}
    ]}
  ]
}
